Calls of active or inactive are those of the source. The calls are words filed in the database; no cut-off is given here.
What was measured:
Ty-82 [1] = experiment: Antiproliferative activity against human Ty-82 cells incubated for 72 hrs by sulforhodamine B based cell counting kit-8 assay; assay type: functional; conditions: TY82, 72 h
MM1.S [2] = experiment: Antiproliferative activity against human MM1.S cells incubated for 72 hrs by sulforhodamine B based cell counting kit-8 assay; assay type: functional
[3] = Half life in CD-1 mouse at 10 mg/kg, po; assay type: ADME, organism-based; conditions: in vivo
[4] = Tmax in CD-1 mouse at 10 mg/kg, po; assay type: ADME, organism-based; conditions: in vivo
[5] = Cmax in CD-1 mouse at 10 mg/kg, po; assay type: ADME, organism-based; parameters: dose 10 mg/kg, route po; conditions: in vivo
[6] = AUClast in CD-1 mouse at 10 mg/kg, po; assay type: ADME, organism-based; parameters: dose 10 mg/kg, route po; conditions: in vivo
[7] = Observed AUC infinity in CD-1 mouse at 10 mg/kg, po; assay type: ADME, organism-based; parameters: dose 10 mg/kg, route po; conditions: in vivo
[8] = Observed MRT infinity in CD-1 mouse at 10 mg/kg, po; assay type: ADME, organism-based; conditions: in vivo
MM1.S [9] = experiment: Antitumor activity against human MM1.S cells xenografted in BALB/c nude mouse assessed growth inhibition treated at 1.5 mg/kg, po qd for 10 days adjusted to qod from day 11 to 21 due to body weight loss relative to control; assay type: functional; conditions: 504 h, time 21 day, read-out: GI
MM1.S [10] = experiment: Antitumor activity against human MM1.S cells xenografted in BALB/c nude mouse assessed growth inhibition treated at 0.5 mg/kg, po qd for 21 days relative to control; assay type: functional; conditions: 504 h, time 21 day, read-out: GI
[11] = Toxicity in BALB/c mouse xenografted with human MM1.S assessed body weight loss treated at 1.5 mg/kg, po qd for 10 days; assay type: organism-based; conditions: in vivo, 240 h, time 10 day
[12] = target: Bromodomain-containing protein 4 (Homo sapiens, UniProt O60885); experiment: Inhibition of full length BRD4 (unknown origin) transfected in HEK293 cells incubated for 20 hrs measured by NanoBRET BRD4/Histone H3.3 interaction assay kit; assay type: cell-based
Ty-82 [13] = experiment: Antitumor activity against human Ty-82 cells xenografted in BALB/c nude mouse assessed tumor growth inhibition treated at 0.5 mg/kg, po qd for 21 days relative to control; assay type: functional; conditions: TY82, 504 h, time 21 day, read-out: TGI
[14] = Toxicity in BALB/c mouse xenografted with human Ty-82 assessed as body weight loss treated at 0.25 to 0.5 mg/kg, po qd for 21 days; assay type: organism-based; conditions: in vivo, 504 h, dose 0.25-0.5 mg/kg, time 21 day
[15] = Toxicity in BALB/c mouse xenografted with human Ty-82 assessed as death treated at 0.25 to 0.5 mg/kg, po qd for 21 days; assay type: organism-based; conditions: in vivo, 504 h, dose 0.25-0.5 mg/kg, time 21 day
Ty-82 [16] = experiment: Induction of apoptosis in human Ty-82 cells assessed as reduction of IDO1 mRNA level at 0.1 to 10 nM for 24 hrs by […]; assay type: functional, cell-based; conditions: dose 0.1-10 nM
Ty-82 [17] = experiment: Induction of apoptosis in human Ty-82 cells assessed as reduction of c-Myc mRNA level at 0.1 to 10 nM for 24 hrs by […]; assay type: functional, cell-based; conditions: dose 0.1-10 nM
Ty-82 [18] = experiment: Induction of apoptosis in human Ty-82 cells for 48 hrs by annexin V-FITC based flow cytometric analysis; assay type: functional, cell-based; conditions: dose 0.1-10 nM
CAPAN-1 [19] = experiment: Induction of apoptosis in human CAPAN-1 cells for 48 hrs by annexin V-FITC based flow cytometric analysis; assay type: functional, cell-based; conditions: dose 0.1-10 nM
Ty-82 [20] = experiment: Induction of apoptosis in human Ty-82 cells assessed as increase in caspase 9 at 0.1 to 10 nM for 48 hrs […]; assay type: functional, cell-based; conditions: dose 0.1-10 nM
CAPAN-1 [21] = experiment: Induction of apoptosis in human CAPAN-1 cells assessed as increase in caspase 9 at 0.1 to 10 nM for 48 hrs […]; assay type: functional, cell-based; conditions: dose 0.1-10 nM
Ty-82 [22] = experiment: Induction of apoptosis in human Ty-82 cells assessed as increase in caspase 3 at 0.1 to 10 nM for 48 hrs […]; assay type: functional, cell-based; conditions: dose 0.1-10 nM
CAPAN-1 [23] = experiment: Induction of apoptosis in human CAPAN-1 cells assessed as increase in caspase 3 at 0.1 to 10 nM for 48 hrs […]; assay type: functional, cell-based; conditions: dose 0.1-10 nM
Ty-82 [24] = experiment: Induction of apoptosis in human Ty-82 cells assessed as increase in caspase 7 at 0.1 to 10 nM for 48 hrs […]; assay type: functional, cell-based; conditions: dose 0.1-10 nM
CAPAN-1 [25] = experiment: Induction of apoptosis in human CAPAN-1 cells assessed as increase in caspase 7 at 0.1 to 10 nM for 48 hrs […]; assay type: functional, cell-based; conditions: dose 0.1-10 nM
Ty-82 [26] = experiment: Induction of apoptosis in human Ty-82 cells assessed as increase in cleaved PARP at 0.1 to 10 nM for 48 hrs […]; assay type: functional, cell-based; conditions: dose 0.1-10 nM
CAPAN-1 [27] = experiment: Induction of apoptosis in human CAPAN-1 cells assessed as increased cleaved PARP at 0.1 to 10 nM for 48 hrs […]; assay type: functional, cell-based; conditions: dose 0.1-10 nM
MV4-11 [28] = experiment: Antitumor activity against human MV4-11 cells xenografted in BALB/c mouse assessed as growth inhibition at 0.6 mg/kg, po qd 21 days relative to control; assay type: functional; conditions: MV4-11, 504 h, time 21 day, read-out: GI
MV4-11 [29] = experiment: Antiproliferative activity against human MV4-11 cells; assay type: functional, cell-based

Row | SMILES | IC50 (MM1.S [2]) | half-life [3] | Tmax [4] | Cmax [5] | AUC(0-t) [6] | AUC(0-inf) [7] | MRT [8] | IC50 [12] | IC50 (Ty-82 [1]) | further results
1 | Cc1ccc(-n2nc(C(=O)N3CCC4(CCN(C(=O)c5nc(-c6ccc7c(c6)N(C6CCCC6)[C@H](C)C(=O)N7C)n(-c6ccc(C)cc6)n5)C4)C3)nc2-c2ccc3c(c2)N(C2CCCC2)[C@H](C)C(=O)N3C)cc1 | 0.74 nM |  |  |  |  |  |  |  | 2.5 nM | 
2 | Cc1ccc(-n2nc(C(=O)N3C[C@H](C)N(C(=O)c4nc(-c5ccc6c(c5)N(C5CCCC5)[C@H](C)C(=O)N6C)n(-c5ccc(C)cc5)n4)C[C@H]3C)nc2-c2ccc3c(c2)N(C2CCCC2)[C@H](C)C(=O)N3C)cc1 |  | 11.4 min | 2.33 h | 1340 ng/mL | 4570 ng·h/mL | 4620 ng·h/mL | 3.82 h |  |  | inhibition in vivo at 1.5 mg/kg (MM1.S [9]): 91.5%; inhibition in vivo at 0.5 mg/kg (MM1.S [10]): 66.5%; Activity [11]: Toxic
3 | CCS(=O)(=O)Nc1ccc(Oc2ccc(F)cc2F)c(-c2cn(C)c(=O)c3[nH]ccc23)c1 [MIVEBRESIB] |  |  |  |  |  |  |  |  |  | inhibition in vivo at 0.5 mg/kg (Ty-82 [13]): 67.6%; Activity [14]: Toxic; Activity [15]: Non-Toxic; Activity (Ty-82 [16]): Active; Activity (Ty-82 [17]): Active; Activity (Ty-82 [18]): Dose-Dependent Effect; Activity (CAPAN-1 [19]): Dose-Dependent Effect; Activity (Ty-82 [20]): Active; Activity (CAPAN-1 [21]): Active; Activity (Ty-82 [22]): Active; Activity (CAPAN-1 [23]): Active; Activity (Ty-82 [24]): Active; Activity (CAPAN-1 [25]): Active; Activity (Ty-82 [26]): Active; Activity (CAPAN-1 [27]): Active; inhibition in vivo at 0.6 mg/kg (MV4-11 [28]): 66.9%
4 | Cc1ccc(-n2nc(C(=O)N3C[C@H](C)N(C(=O)c4nc(-c5ccc6c(c5)N(C5CCCC5)[C@H](C)C(=O)N6C)n(-c5ccc(C)cc5C)n4)C[C@H]3C)nc2-c2ccc3c(c2)N(C2CCCC2)[C@H](C)C(=O)N3C)c(C)c1 | 0.29 nM |  |  |  |  |  |  |  | 0.75 nM | 
5 | Cc1ccc(-n2nc(C(=O)N3CCN(C(=O)c4nc(-c5ccc6c(c5)N(C5CCCC5)[C@@H](C)C(=O)N6C)n(-c5ccc(C)cc5)n4)CC3)nc2-c2ccc3c(c2)N(C2CCCC2)[C@H](C)C(=O)N3C)cc1 | 3.12 nM |  |  |  |  |  |  | 66.6 nM | 16.7 nM | 
6 | Cc1sc2c(c1C)C(c1ccc(Cl)cc1)=N[C@@H](CC(=O)NCCOCCOCCOCCOCCOCCOCCOCCNC(=O)C[C@@H]1N=C(c3ccc(Cl)cc3)c3c(sc(C)c3C)-n3c(C)nnc31)c1nnc(C)n1-2 |  |  |  |  |  |  |  |  |  | IC50 (MV4-11 [29]): 0.17 nM
7 | Cc1ccc(-n2nc(C(=O)N3CC4(C3)CN(C(=O)c3nc(-c5ccc6c(c5)N(C5CCCC5)[C@H](C)C(=O)N6C)n(-c5ccc(C)cc5)n3)C4)nc2-c2ccc3c(c2)N(C2CCCC2)[C@H](C)C(=O)N3C)cc1 | 12.6 nM |  |  |  |  |  |  |  | 76 nM | 

Further lines, with some results ahead:

Row | IC50 (MM1.S [2]) | half-life [3] | Tmax [4] | Cmax [5] | AUC(0-t) [6] | AUC(0-inf) [7] | MRT [8] | IC50 [12] | SMILES | IC50 (Ty-82 [1]) | further results
8 |  | 9 min | 0.5 h | 286 ng/mL | 368 ng·h/mL | 371 ng·h/mL | 2.57 h |  | Cc1ccc(-n2nc(C(=O)N3CCCN(C(=O)c4nc(-c5ccc6c(c5)N(C5CCCC5)[C@H](C)C(=O)N6C)n(-c5ccc(C)cc5)n4)CC3)nc2-c2ccc3c(c2)N(C2CCCC2)[C@H](C)C(=O)N3C)cc1 |  | 
9 |  | 49.2 min | 1 h | 238 ng/mL | 361 ng·h/mL | 372 ng·h/mL | 1.69 h | 6.2 nM | Cc1ccc(-n2nc(C(=O)N3CCN(C(=O)c4nc(-c5ccc6c(c5)N(C5CCCC5)[C@H](C)C(=O)N6C)n(-c5ccc(C)cc5)n4)CC3)nc2-c2ccc3c(c2)N(C2CCCC2)[C@H](C)C(=O)N3C)cc1 |  | 
10 | 47.4 nM |  |  |  |  |  |  | 52.2 nM | Cc1ccc(-n2nc(C(=O)N3CCNCC3)nc2-c2ccc3c(c2)N(C2CCCC2)[C@H](C)C(=O)N3C)cc1 | 24.1 nM | 

Source: ChEMBL document CHEMBL5352381, “Design and development of a novel series of oral bivalent BET inhibitors with potent anticancer activities” (Eur J Med Chem, 2022)
